ChEMBL document CHEMBL1201862, “PubChem BioAssay data set” (2004)
Calls of active or inactive are those of the source.

Columns and labels:
[1] = tested on: INS1; assay: beta cell apoptosis inhibitors, cytokine rescue, dose response, luminescence, retest (AID 449756); format: functional, cell-based; conditions: Rattus norvegicus;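 note: cell death triggered by IL-1 beta plus TNF-alpha plus IFN-gamma mixture; protective hits raise ATP signal compared with cytokine alone wells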
[2] = tested on: HEK293; assay: inhibitors of LMP1-driven NF-kB reporter, dose response, cell-based, HEK293, luciferase, cherry-pick (AID 588343); format: functional; conditions: Homo sapiens
[3] = cytotoxicity toward DRD oncogenic fibroblasts, dose response, cell-based, non-viral oncogenic, luminescence (AID 1934); format: functional; conditions: Homo sapiens
[4] = target: T1, Protein RecA (Mycobacterium tuberculosis, UniProt P9WHJ3); assay: Fluorescence Cell-Free Homogeneous Dose Retest to Identify Inhibitors of RecA-Intein Splicing Activity. [Related pubchem assays (depositor defined):AID2097, AID2223, AID489010, AID492950]; format: functional
T1 sequence (P9WHJ3 whole entry): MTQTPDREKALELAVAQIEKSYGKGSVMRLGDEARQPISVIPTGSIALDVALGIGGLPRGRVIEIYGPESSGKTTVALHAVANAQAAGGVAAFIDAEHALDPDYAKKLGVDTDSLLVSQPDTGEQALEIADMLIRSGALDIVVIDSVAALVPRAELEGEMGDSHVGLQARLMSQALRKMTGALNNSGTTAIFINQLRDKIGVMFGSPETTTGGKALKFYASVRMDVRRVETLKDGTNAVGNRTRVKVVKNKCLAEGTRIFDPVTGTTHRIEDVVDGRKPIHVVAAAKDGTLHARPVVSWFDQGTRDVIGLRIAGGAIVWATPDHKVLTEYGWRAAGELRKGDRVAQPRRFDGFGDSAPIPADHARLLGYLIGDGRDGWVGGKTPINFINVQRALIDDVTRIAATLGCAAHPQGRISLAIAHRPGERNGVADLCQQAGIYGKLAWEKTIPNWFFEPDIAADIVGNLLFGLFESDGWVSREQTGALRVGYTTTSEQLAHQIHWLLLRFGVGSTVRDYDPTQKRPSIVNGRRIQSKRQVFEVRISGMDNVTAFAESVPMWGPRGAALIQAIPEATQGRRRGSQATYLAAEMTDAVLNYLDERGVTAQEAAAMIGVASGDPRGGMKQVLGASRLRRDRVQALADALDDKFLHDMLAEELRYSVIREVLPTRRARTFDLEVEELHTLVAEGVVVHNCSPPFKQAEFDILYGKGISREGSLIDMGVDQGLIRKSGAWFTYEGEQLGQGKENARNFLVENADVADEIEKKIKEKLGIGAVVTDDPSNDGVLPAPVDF

[5] = target: Paired box protein Pax-8 (Homo sapiens, UniProt Q06710); assay: inhibitors of PAX8-driven TPO luciferase reporter, dose response, RMG-I cells, cherry-pick (AID 687027); format: functional, cell-based;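 note: luciferase reporter driven by Pax8 target thyroperoxidase promoter measured by SteadyGlo luminescence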
Chain of Paired box protein Pax-8 (Q06710 whole entry): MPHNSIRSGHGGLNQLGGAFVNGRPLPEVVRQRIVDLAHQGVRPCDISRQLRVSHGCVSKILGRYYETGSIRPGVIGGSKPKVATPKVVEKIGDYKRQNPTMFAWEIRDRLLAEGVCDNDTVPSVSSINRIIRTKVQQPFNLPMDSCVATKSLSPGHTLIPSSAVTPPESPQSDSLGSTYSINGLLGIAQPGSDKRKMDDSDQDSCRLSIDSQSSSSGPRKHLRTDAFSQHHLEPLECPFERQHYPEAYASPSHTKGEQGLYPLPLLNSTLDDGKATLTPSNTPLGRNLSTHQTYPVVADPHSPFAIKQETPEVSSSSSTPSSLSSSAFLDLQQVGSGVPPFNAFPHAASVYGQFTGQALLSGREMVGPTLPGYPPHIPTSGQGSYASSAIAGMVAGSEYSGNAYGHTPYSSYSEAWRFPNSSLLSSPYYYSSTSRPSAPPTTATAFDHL

[6] = tested on: BJ; assay: cytotoxicity toward Ras-transformed BJeLR fibroblasts, dose response, cell-based, alamar blue fluorescence, cherrypicked samples (AID 2631); format: functional; conditions: Homo sapiens;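 note: confirmatory dose-response assay in RAS-dependent BJ fibroblasts engineered with TERT, LT and ST, with cytotoxicity read by fluorescence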
[7] = target: Galanin receptor type 3 (Homo sapiens, UniProt O60755); assay: Fluorescence-based cell-based primary high throughput dose response assay to identify antagonists of the Galanin Receptor 3 (GalR3).; format: functional
Chain of Galanin receptor type 3 (O60755 whole entry): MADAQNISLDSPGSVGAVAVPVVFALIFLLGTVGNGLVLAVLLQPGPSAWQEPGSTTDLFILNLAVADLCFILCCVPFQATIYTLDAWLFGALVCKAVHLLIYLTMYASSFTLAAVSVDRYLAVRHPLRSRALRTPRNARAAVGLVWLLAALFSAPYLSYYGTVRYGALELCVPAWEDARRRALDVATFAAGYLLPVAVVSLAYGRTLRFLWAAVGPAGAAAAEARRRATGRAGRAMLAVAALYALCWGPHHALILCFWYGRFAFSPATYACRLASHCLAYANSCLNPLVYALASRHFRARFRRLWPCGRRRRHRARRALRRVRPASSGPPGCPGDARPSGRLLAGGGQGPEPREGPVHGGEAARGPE

[8] = cells; format: functional, cell-based; conditions: HEK-CNG
[9] = tested on: BJ; assay: cytotoxicity toward BJ-TERT fibroblasts, dose response, cell-based, RAS-independent, luminescence (AID 1933); format: functional; conditions: Homo sapiens
[10] = tested on: BJ; assay: cytotoxicity toward BJ-TERT-LT-ST fibroblasts, dose response, cell-based, RAS-independent, luminescence (AID 1935); format: functional; conditions: Homo sapiens;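 note: BJ fibroblasts immortalized with TERT plus LT and ST oncogenes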
[11] = tested on: BJ; assay: cells; format: functional, cell-based; conditions: Homo sapiens
[12] = target: T2, Replicative DNA helicase DnaB (Mycobacterium tuberculosis, UniProt P9WMR3); assay: DnaB intein splicing inhibitors, dose response, biochemical, cell-free fluorescence (AID 449749); format: functional
T2 sequence (P9WMR3 whole entry): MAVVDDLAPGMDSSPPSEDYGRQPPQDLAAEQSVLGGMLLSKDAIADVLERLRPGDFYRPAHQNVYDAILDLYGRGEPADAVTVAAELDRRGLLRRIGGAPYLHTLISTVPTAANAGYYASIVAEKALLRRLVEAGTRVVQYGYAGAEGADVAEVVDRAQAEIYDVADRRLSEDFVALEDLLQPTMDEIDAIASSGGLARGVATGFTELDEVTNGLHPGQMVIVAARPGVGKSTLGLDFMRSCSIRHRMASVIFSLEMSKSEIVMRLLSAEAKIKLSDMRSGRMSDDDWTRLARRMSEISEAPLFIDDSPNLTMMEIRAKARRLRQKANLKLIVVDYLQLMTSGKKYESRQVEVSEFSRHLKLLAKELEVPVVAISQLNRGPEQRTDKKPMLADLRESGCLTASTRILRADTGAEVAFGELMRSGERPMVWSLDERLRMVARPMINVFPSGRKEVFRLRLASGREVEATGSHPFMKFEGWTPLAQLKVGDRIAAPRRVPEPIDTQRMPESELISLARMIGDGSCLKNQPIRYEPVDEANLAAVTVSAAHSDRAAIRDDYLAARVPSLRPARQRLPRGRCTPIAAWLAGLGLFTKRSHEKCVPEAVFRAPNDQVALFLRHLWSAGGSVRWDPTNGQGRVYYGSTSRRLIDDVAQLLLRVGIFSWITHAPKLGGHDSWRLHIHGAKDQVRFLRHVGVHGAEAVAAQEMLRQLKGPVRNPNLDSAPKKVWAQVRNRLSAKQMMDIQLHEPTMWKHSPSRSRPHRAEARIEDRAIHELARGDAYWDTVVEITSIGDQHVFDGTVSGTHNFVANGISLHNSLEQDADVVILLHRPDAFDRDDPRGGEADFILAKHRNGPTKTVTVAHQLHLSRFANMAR

[13] = target: T3, Endoribonuclease toxin MazF (Escherichia coli K-12, UniProt P0AE70); assay: fluorescent RNA oligo signal without MazF, dose response, counter-screen for MazEF activator project, biochemical, fluorescence, single-stranded RNase substrate (AID 588502); format: functional
T3 sequence (P0AE70 whole entry): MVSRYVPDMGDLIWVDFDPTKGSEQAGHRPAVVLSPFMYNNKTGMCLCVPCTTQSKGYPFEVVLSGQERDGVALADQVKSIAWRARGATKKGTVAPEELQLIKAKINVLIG

[14] = tested on: MEF; assay: SAR analysis of small molecule cytotoxicity of MazEF TA System activators in embryonic fibroblast (MEF) cells. [Related pubchem assays (depositor defined):AID504720, AID504743]; format: functional; conditions: Mus musculus
[15] = target: T3, Endoribonuclease toxin MazF; assay: SAR analysis of small molecule activators of the MazEF TA System via a fluorescence-based single-stranded RNase assay counterscreen. [Related pubchem assays (depositor defined):AID504720, AID504743]; format: functional
[16] = target: T3, Endoribonuclease toxin MazF; assay: MazF toxin RNase activators, dose response, biochemical, fluorescence, single-stranded RNA substrate, uHTS hits (AID 588481); format: functional
[17] = target: T3, Endoribonuclease toxin MazF; assay: MazF endoribonuclease activators, SAR follow-up, biochemical, fluorescence, single-stranded RNA substrate (AID 588603); format: functional
[18] = Luminescence-based dose response cell-based high throughput screening assay for cytotoxic compounds using the IEC-6 intestinal epithelial cell line. [Related pubchem assays: 1858 (Summary AID.), 1825 (Counterscreen.), 1907 (Confirmation screen.)]; format: functional
[19] = Counterscreen for AddAB inhibitors: absorbance-based bacterial cell-based high throughput dose response assay for inhibitors of bacterial viability. [Related pubchem assays (depositor defined):AID435030, AID449728, AID449731, AID488942, AID488955, AID488956]; format: functional
[20] = HepG2 cell cytotoxicity, dose response, cytotoxicity control for Shn3 inhibitor project, CellTiter-Glo, cherry-picked (AID 624134); format: functional, cell-based
[21] = cytotoxicity toward NIH3T3 fibroblasts, dose response, counter-screen, cell-based, ATP luminescence, mouse fibroblasts (AID 2010); format: functional;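 note: cells exposed to compound for about 90 hours before reading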
[22] = cytotoxicity in HEK-293T cells, dose response, cytotoxicity control for TCR NF-kB inhibitor project, luminescence, T-cell screen hits (AID 489026); format: functional, cell-based;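 note: cells exposed to compound about 14 hours before the viability readout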
[23] = tested on: Jurkat; assay: SAR Analysis of small molecule inhibitors of T-cell specific antigen receptor-induced NF-kB activation in a Jurkat cell line using a luminescence assay - Set 2. [Related pubchem assays (depositor defined):AID435003, AID435012, AID465]; format: functional, cell-based; conditions: Homo sapiens
[24] = tested on: HEK293; assay: cytotoxicity in HEK293T NF-kB-Luc cells, SAR follow-up, cytotoxicity control for NF-kB activator project, cell-based, resazurin fluorescence (AID 493251); format: functional; conditions: Homo sapiens
[25] = cells; format: functional, cell-based
[26] = inhibitors of intracellular T. cruzi replication, confirmation, NIH3T3 host cells, beta-gal luminescence (AID 2044); format: functional, cell-based;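 note: intracellular parasites grown in NIH/3T3 mouse fibroblasts as host cells; luminescent beta-galactosidase reporter signal from transgenic T. cruzi replicating inside host cells; inhibitors lower the luminescence signal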
[27] = target: Heat shock protein HSP 90-alpha (Homo sapiens, UniProt P07900); format: functional, organism-based
[28] = cells; format: functional, cell-based; remark: listed apart in the source
[29] = tested on: HEK293; assay: SAR Analysis of small molecule inhibitors of T-cell specific antigen receptor-induced NF-kB activation in a HEK-293T cell line using a luminescence assay - Set 2. [Related pubchem assays (depositor defined):AID435003, AID435012, AID489026]; format: functional, cell-based; conditions: Homo sapiens
[30] = target: Exodeoxyribonuclease V (Escherichia coli (strain K12), UniProt P04993+P07648+P08394); assay: E. coli RecBCD inhibitors, dose response, counter-screen for AddAB inhibitor project, absorbance, V66 E. coli, mutant T4 phage (AID 492957); format: functional, cell-based, Escherichia coli str. K-12 substr. MG1655
Chain of Exodeoxyribonuclease V (P04993 whole entry): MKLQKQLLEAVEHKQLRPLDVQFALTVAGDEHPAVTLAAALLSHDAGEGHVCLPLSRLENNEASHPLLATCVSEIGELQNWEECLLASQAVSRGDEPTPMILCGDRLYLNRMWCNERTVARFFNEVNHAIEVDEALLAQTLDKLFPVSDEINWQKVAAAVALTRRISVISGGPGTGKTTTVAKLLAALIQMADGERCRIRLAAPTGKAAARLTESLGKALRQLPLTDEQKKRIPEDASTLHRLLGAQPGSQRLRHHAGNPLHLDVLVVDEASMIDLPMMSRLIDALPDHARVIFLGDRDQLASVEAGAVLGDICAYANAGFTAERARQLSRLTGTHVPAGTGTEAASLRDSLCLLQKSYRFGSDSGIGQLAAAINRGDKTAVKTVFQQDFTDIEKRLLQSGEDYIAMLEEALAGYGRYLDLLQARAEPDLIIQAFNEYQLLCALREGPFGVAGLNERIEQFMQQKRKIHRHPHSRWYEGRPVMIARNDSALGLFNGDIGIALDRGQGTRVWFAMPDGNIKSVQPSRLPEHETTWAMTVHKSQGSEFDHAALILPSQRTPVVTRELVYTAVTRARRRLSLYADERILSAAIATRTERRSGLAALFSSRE
Chain of Exodeoxyribonuclease V (P07648 whole entry): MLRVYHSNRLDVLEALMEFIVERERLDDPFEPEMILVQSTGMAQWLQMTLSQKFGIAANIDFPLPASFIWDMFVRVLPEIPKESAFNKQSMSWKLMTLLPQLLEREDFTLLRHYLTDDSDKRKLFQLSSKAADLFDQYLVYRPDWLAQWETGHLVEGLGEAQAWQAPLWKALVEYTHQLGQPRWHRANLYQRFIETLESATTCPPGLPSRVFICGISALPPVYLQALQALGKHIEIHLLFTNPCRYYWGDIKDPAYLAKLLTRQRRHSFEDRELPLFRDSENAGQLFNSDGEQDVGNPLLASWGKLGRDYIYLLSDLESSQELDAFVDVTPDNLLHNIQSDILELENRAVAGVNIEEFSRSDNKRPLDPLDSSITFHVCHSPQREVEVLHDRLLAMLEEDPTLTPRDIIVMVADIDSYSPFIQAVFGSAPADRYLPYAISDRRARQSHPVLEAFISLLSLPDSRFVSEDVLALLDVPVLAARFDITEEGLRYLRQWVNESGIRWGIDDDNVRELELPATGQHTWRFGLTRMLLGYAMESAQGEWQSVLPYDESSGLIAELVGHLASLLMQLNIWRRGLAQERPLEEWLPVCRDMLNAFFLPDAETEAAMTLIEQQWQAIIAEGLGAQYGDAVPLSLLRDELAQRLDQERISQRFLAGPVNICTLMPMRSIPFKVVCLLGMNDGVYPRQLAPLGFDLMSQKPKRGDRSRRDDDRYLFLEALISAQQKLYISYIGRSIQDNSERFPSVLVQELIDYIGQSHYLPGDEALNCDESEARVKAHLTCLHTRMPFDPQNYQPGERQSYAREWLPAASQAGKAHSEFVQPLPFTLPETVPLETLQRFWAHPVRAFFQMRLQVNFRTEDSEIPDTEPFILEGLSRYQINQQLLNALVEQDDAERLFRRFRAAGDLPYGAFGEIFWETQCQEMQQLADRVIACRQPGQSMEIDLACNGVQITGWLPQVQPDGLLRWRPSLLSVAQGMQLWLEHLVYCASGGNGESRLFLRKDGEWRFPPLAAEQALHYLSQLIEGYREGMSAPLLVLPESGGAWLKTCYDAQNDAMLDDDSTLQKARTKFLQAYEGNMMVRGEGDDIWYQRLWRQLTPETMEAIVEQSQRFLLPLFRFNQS
Chain of Exodeoxyribonuclease V (P08394 whole entry): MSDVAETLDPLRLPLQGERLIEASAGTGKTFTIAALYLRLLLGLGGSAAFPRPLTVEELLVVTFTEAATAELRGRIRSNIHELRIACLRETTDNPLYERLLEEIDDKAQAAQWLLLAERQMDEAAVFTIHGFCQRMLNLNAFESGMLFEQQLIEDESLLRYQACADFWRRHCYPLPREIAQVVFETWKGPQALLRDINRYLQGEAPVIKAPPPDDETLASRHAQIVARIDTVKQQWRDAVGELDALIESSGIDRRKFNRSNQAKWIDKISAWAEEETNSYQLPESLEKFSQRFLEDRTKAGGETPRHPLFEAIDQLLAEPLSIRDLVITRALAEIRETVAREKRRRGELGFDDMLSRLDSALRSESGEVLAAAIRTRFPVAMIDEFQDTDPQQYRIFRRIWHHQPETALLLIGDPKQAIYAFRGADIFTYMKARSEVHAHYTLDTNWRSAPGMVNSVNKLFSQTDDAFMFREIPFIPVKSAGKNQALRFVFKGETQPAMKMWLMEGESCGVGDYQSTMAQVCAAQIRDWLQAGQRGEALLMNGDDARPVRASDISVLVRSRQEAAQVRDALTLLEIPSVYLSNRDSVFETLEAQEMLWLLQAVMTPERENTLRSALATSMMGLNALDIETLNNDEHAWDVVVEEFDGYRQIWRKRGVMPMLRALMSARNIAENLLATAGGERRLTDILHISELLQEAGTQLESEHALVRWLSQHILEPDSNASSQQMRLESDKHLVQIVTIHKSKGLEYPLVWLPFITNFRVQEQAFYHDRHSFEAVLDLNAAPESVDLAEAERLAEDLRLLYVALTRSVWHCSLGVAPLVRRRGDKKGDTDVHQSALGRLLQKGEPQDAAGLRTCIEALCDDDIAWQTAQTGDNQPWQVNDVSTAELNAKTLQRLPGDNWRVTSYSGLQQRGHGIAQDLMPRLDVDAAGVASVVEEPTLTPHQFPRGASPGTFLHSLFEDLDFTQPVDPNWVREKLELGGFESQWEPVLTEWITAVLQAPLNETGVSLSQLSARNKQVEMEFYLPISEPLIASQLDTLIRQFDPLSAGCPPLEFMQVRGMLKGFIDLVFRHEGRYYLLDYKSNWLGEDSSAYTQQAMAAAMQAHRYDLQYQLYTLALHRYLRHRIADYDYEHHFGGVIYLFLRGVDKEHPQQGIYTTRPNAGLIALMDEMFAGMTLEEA

[31] = Shn3 3'UTR reporter inhibitors, dose response, cell-based, Clone20 osteoblasts, firefly luciferase, cherry-picked (AID 624132); format: functional;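 note: firefly luciferase luminescence from reporter carrying the Shn3 3'UTR in osteoblasts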
[32] = control 3'UTR Renilla luciferase suppression, dose response, counter-screen for Shn3 inhibitor project, cell-based, Clone20-Shn3RL, cherry-picked (AID 624133); format: functional
[33] = target: DNA topoisomerase (Yersinia pestis, UniProt A0A2S9PM60); assay: Y. pestis Topo-I inhibitors, cleavage product readout, dose response, biochemical, cherry-pick (AID 588525)
Chain of DNA topoisomerase (A0A2S9PM60 whole entry): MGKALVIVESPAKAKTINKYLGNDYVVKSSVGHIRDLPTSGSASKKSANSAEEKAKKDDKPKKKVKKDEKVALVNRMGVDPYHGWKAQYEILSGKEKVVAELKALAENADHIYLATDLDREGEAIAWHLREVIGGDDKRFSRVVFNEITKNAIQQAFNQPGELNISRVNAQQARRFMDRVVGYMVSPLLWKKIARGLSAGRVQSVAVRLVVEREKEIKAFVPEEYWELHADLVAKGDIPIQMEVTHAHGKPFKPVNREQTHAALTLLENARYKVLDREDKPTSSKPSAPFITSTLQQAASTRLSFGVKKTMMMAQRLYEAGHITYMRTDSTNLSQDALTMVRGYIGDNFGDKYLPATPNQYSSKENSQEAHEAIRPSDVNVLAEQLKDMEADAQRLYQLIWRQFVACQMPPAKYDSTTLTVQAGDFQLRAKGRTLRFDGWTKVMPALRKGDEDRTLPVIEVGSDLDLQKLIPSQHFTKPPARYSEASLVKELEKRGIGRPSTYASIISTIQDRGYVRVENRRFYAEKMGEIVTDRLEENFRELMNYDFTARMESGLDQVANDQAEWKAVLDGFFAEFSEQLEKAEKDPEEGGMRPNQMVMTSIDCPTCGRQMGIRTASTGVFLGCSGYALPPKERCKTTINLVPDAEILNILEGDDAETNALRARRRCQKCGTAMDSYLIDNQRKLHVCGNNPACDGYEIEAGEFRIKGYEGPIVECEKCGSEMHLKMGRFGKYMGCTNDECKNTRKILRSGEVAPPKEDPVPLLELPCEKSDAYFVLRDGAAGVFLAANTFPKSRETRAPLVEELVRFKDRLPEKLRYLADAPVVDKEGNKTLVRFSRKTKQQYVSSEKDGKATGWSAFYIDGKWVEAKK

[34] = tested on: Candida albicans; assay: growth inhibition of azole-resistant C. albicans, dose response, CaCi-8 strain, Alamar Blue, dry powder, set 2 (AID 488909); format: functional, organism-based
[35] = tested on: Candida albicans; assay: growth inhibition of resistant C. albicans, dose response, CaCi-8 strain, fluconazole, dry powder, set 4 (AID 488950); format: functional, organism-based
[36] = tested on: Candida albicans; assay: fluconazole resistance reversal in C. albicans, dose response, CaCi-2 strain, Alamar Blue, dry powder, set 4 (AID 488943); format: functional, organism-based
[37] = target: Cysteine protease ATG4B (Homo sapiens, UniProt Q9Y4P1); format: functional;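 note: Fluorescence-based dose-response confirmation assay measuring inhibition of ATG4B activity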
[38] = target: Phospholipase A2 (Homo sapiens, UniProt P04054); format: functional;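 note: confirmatory dose-response counterscreen on phospholipase A2, testing hits that came from an ultra-high-throughput screen for ATG4B inhibitors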
Chain of Phospholipase A2 (P04054 whole entry): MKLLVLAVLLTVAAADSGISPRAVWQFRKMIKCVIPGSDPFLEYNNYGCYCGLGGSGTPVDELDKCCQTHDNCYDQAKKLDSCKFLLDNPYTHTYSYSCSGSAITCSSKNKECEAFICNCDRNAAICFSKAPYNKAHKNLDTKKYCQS

N#CC(C#N)=NNc1ccc(-n2ccc(C(F)(F)F)n2)cc1
inactive: EC50 [6] > 133 µM | EC50 [8] > 29.9 µM
active: AC50 [1] 5.57 µM | AC50 [2] 3.38 µM | EC50 [4] 2.98 µM | AC50 [5] 3.44 µM | IC50 [7] > 1.11 µM | EC50 [11] 11.4 µM | AC50 [12] 2.03 µM
> 150 µM (not active): EC50 [10]
inconclusive: EC50 [3] 18.2 µM | EC50 [9] 13.6 µM

CN1C(=O)C(C)(C)c2cc(S(=O)(=O)NCc3ccc(C(=O)NCc4ccco4)cc3)ccc21
inactive: EC50 [13] 29.2 µM | CC50 [14] > 99 µM | EC50 [15] > 99 µM
active: EC50 [16] 7.01 µM | EC50 [17] 3.35 µM

CC(=O)NC(c1ccc(C(C)C)cc1)c1ccc2cccnc2c1O (stereo not given)
inactive: IC50 [19] > 118 µM | IC50 [22] > 80 µM | IC50 [24] 56.1 µM | IC50 [30] > 118 µM
active: IC50 [18] 1.36 µM | AC50 [1] 0.494 µM | AC50 [20] 1.3 µM | EC50 [21] 0.424 µM | IC50 [23] 2.6 µM | EC50 [25] 3.64 µM | AC50 [2] 5.2 µM | EC50 [26] 0.337 µM | AC50 [5] 2.03 µM | EC50 [9] 0.958 µM | AC50 [27] 3.58 µM | IC50 [29] 5.24 µM | AC50 [31] 0.528 µM | AC50 [32] 0.35 µM
inconclusive: EC50 [3] 8.18 µM | EC50 [10] 8.47 µM | EC50 [11] 2.29 µM
> 350 µM (not active): EC50 [28]

Cc1c(C(=O)OCC(=O)N(CC(C)C)c2c(N)n(Cc3ccccc3)c(=O)[nH]c2=O)oc2ccccc12
active: AC50 [33] 9.46 µM

COc1ccc2c(N3CCN(C(=O)c4ccc(Cl)cc4)CC3)ccnc2c1
active: AC50 [34] 18.4 µM | AC50 [35] 8.86 µM | AC50 [36] 12.4 µM

Cc1ccc(-n2c(SCC(=O)N/N=C/C=C/c3ccccc3[N+](=O)[O-])nc3ccccc3c2=O)cc1
active: IC50 [37] 6.42 µM | IC50 [38] 2.53 µM
